Laboratory results published in ChEMBL document CHEMBL3603748, “Design of HIV-1 Protease Inhibitors with Amino-bis-tetrahydrofuran Derivatives as P2-Ligands to Enhance Backbone-Binding Interactions: Synthesis, Biological Evaluation, and Protein-Ligand X-ray Studies” (J Med Chem, 2015).
pEC50, pIC50, pKi: −log10 of the molar value.

Columns and labels:
[1] = tested on: Human immunodeficiency virus 1; test: Antiviral activity against HIV1 LAI infected in human MT2 cells; format: functional, organism-based; conditions: Human immunodeficiency virus 1, LAI
Protease = Protease (Human immunodeficiency virus 1, UniProt Q9YQ12); test: Inhibition of HIV1 protease
Chain of Protease (Q9YQ12 whole entry): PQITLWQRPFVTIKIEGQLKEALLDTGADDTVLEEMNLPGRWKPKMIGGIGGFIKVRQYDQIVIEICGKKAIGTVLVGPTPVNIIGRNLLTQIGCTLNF

[2] = tested on: Human immunodeficiency virus 1; test: Antiviral activity against darunavir-resistant HIV1 P20 infected in human MT4 cells by XTT assay; format: functional, organism-based; conditions: Human immunodeficiency virus 1, P20, MT4
[3] = tested on: Human immunodeficiency virus 1; test: Antiviral activity against darunavir-resistant HIV1 P10 infected in human MT4 cells by XTT assay; format: functional, organism-based; conditions: Human immunodeficiency virus 1, P10, MT4
[4] = tested on: Human immunodeficiency virus 1; test: Resistance index, ratio of EC50 for darunavir-resistant HIV1 P20 infected in human MT4 cells by XTT assay to EC50 for HIV1 NL4-3 infected in human MT4 cells by XTT assay; format: functional
[5] = tested on: Human immunodeficiency virus 1; test: Antiviral activity against darunavir-resistant HIV1 P51 infected in human MT4 cells by XTT assay; format: functional, organism-based; conditions: Human immunodeficiency virus 1, P51, MT4
[6] = tested on: Human immunodeficiency virus 1; test: Antiviral activity against HIV1 NL4-3 infected in human MT4 cells by XTT assay; format: functional, organism-based; conditions: Human immunodeficiency virus 1, NL4-3, MT4

Row | Structure (SMILES) | pIC50 [1] | pKi (Protease) | pEC50 [2] | pEC50 [3] | Ratio EC50 [4] | pEC50 [5] | pEC50 [6]
1 | COc1ccc(S(=O)(=O)N(CC(C)C)C[C@@H](O)[C@H](Cc2ccccc2)NC(=O)O[C@H]2CO[C@H]3OC[C@H](NC(C)C)[C@H]32)cc1 | 9.47 | 11.20 | 7.62 | 7.68 | 23 | 6.59 | 9.00
2 | COc1ccc(S(=O)(=O)N(CC(C)C)C[C@@H](O)[C@H](Cc2ccccc2)NC(=O)O[C@H]2CO[C@H]3OC[C@H](N(C)C)[C@H]32)cc1 | 8.36 | 10.85 |  |  |  |  | 
3 | CCN(CC)[C@H]1CO[C@@H]2OC[C@H](OC(=O)N[C@@H](Cc3ccccc3)[C@H](O)CN(CC(C)C)S(=O)(=O)c3ccc(OC)cc3)[C@@H]21 | 8.14 | 10.85 |  |  |  |  | 
4 | COc1ccc(S(=O)(=O)N(CC(C)C)C[C@@H](O)[C@H](Cc2ccccc2)NC(=O)O[C@H]2CO[C@H]3OC[C@H](N=[N+]=[N-])[C@H]32)cc1 | 8.36 | 11.41 |  |  |  |  | 
5 | COc1ccc(S(=O)(=O)N(CC(C)C)C[C@@H](O)[C@H](Cc2ccccc2)NC(=O)O[C@H]2CO[C@H]3OC[C@H](N)[C@H]32)cc1 | 7.32 | 9.28 |  |  |  |  | 
6 | COc1ccc(S(=O)(=O)N(CC(C)C)C[C@@H](O)[C@H](Cc2ccccc2)NC(=O)O[C@H]2CO[C@H]3OC[C@H](NC(=O)OC(C)(C)C)[C@H]32)cc1 | 8.36 | 10.85 |  |  |  |  | 
7 | COC(=O)N[C@H]1CO[C@@H]2OC[C@H](OC(=O)N[C@@H](Cc3ccccc3)[C@H](O)CN(CC(C)C)S(=O)(=O)c3ccc(OC)cc3)[C@@H]21 | 8.43 | 10.62 |  |  |  |  | 
8 | COc1ccc(S(=O)(=O)N(CC(C)C)C[C@@H](O)[C@H](Cc2ccccc2)NC(=O)O[C@H]2CO[C@H]3OC[C@H](N(C)C(=O)OC(C)(C)C)[C@H]32)cc1 | 7.43 | 10.92 |  |  |  |  | 
9 | CN[C@H]1CO[C@@H]2OC[C@H](OC(=O)N[C@@H](Cc3ccccc3)[C@H](O)CN(CC(C)C)S(=O)(=O)c3ccc(OC)cc3)[C@@H]21 | 7.46 | 11.82 | 7.49 |  | 1.1 |  | 7.54
10 | CN[C@H]1CO[C@@H]2OC[C@H](OC(=O)N[C@@H](Cc3ccccc3)[C@H](O)CN(CC(C)C)S(=O)(=O)c3ccc(N)cc3)[C@@H]21 | 6.32 | 11.00 |  |  |  |  | 
11 | CCN(C(=O)OC(C)(C)C)[C@H]1CO[C@@H]2OC[C@H](OC(=O)N[C@@H](Cc3ccccc3)[C@H](O)CN(CC(C)C)S(=O)(=O)c3ccc(OC)cc3)[C@@H]21 |  | 10.32 |  |  |  |  | 
12 | CCN[C@H]1CO[C@@H]2OC[C@H](OC(=O)N[C@@H](Cc3ccccc3)[C@H](O)CN(CC(C)C)S(=O)(=O)c3ccc(OC)cc3)[C@@H]21 | 7.66 | 10.57 |  | 7.41 |  | 6.64 | 7.82
